According to patent US12552790B2, “Positive modulators of the muscarinic acetylcholine receptor M4” (Vanderbilt University, priority 2023, dated 2026):

Target: T1, Human M4 (Homo sapiens, UniProt P08173)
T1 construct: expressed in transfected cells
T1 sequence (P08173 1-479): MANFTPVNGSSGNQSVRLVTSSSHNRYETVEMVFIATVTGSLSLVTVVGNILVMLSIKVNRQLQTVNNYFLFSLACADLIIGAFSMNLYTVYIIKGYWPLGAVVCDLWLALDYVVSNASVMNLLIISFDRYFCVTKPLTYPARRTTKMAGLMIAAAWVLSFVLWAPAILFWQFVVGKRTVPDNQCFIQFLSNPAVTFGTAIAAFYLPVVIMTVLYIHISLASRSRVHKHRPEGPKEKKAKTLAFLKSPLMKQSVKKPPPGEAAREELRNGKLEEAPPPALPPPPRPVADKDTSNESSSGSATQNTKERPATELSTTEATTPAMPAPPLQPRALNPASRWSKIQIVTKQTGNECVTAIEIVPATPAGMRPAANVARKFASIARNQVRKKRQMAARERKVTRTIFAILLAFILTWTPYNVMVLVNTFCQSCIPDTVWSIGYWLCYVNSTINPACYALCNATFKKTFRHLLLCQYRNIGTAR
Assay: M4 cell-based functional assay, calcium mobilization, potentiation of ACh EC20
Conditions: for Emax at 30 µM: % ACh maximum at 30 μM; for EC50: CHO-K1 hM4-Gqi5 cells, calcium flux, ACh EC20
How it was run: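 CHO-K1 cells stably co-expressing human M4 and chimeric Gqi5, loaded with Fluo-4-AM, read by calcium fluorescence (ex 480/em 530 nm). Compound (10-point 1:3 series) added ~140 s before an EC20 ACh challenge, then EC80 ACh. Response expressed as fold over basal, normalized to maximal ACh response.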

Row | Emax at 30 µM [%] | EC50 [nM] | SMILES
1 | 96 | 2 | [2H]C1([2H])Oc2ccc(OC3CCN(c4nc5c(cc4C)C(=O)NC5)CC3)cc2OC1([2H])[2H] [Compound 3, 2-(4-((2,3-dihydrobenzo[b][1,4]dioxin-6-yl-2,2,3,3-d4)oxy)piperidin-1-yl)-3-methyl-6,7-dihydro-5H-pyrrolo[3,4-b]pyridin-5-one]
2 | 90 | 7 | [2H]C1([2H])Oc2ccc(OC3CCN(c4nc5nn(C)c(=O)n5cc4C)CC3)cc2OC1([2H])[2H] [Compound A6, 7-(4-((2,3-dihydrobenzo[b][1,4]dioxin-6-yl-2,2,3,3-d4)oxy)piperidin-1-yl)-2,6-dimethyl-[1,2,4]triazolo[4,3-a]pyrimidin-3(2H)-one]
3 | 96 | 2 | [2H]C1([2H])Oc2ccc(OC3CCN(c4nc5nn(C)c(=O)n5c(C)c4C)CC3)cc2OC1([2H])[2H] [Compound A10, 7-(4-((2,3-dihydrobenzo[b][1,4]dioxin-6-yl-2,2,3,3-d4)oxy)piperidin-1-yl)-2,5,6-trimethyl-[1,2,4]triazolo[4,3-a]pyrimidin-3(2H)-one]
